Laboratory results as given in patent publication US9134245B2, “Cell-based antioxidant protection assay” (Natural Immune Systems, Inc., priority 2007, dated 2015).
≈ marks a conversion by molar mass, not a printed value.

Tested on: red blood cells (RBC)
Assay: CAP-e assay (RBC treated with test sample, washed, lysed; CM-H2DCFDA fluorescence after oxidative challenge)
Assay type: cell-based, human
Conditions: for inhibition of oxidative damage: hydroxyl free radical generator H2O2 compared with peroxyl free radical generator AAPH: dose response curves, FIG. 2 and FIG. 3
Procedure: Whole blood was collected from healthy volunteers. A double density gradient was prepared, where 3 ml of HISTOPAQUE® 1099 was overlaid with 3 ml of HISTOPAQUE® 1077. 5-6 ml of whole anticoagulated blood was layered on top of the double gradient and centrifuged for 25 minutes at 2400 rpm. The plasma, peripheral blood mononuclear cells, polymorphonuclear cells, and HISTOPAQUE® were removed using a transfer pipette. The remaining packed red blood cell fraction was washed three times in 10-14 ml PBS by centrifugation at 2400 rpm for 10 minutes. After the third wash the supernatant was removed, and the packed RBC were aliquoted for storage by pipetting 200 μl packed RBC into 10 ml PBS. The RBC aliquots were stored at 4-8° C. until use. The cells were used the same day or after up to 120 days of storage. For most routine testing, the RBC were typically prepared 2-4 weeks before use.
The antioxidant standard gallic acid (GA) was prepared by dissolving 85 mg of GA in 0.5 ml of 99.95% methanol. 0.2 ml of the dissolved GA was immediately diluted in 49.8 ml of PBS. Serial five-fold dilutions of the GA solution were prepared in PBS.
The serial dilutions of the extract and the GA standard were aliquoted in duplicate in a deep-well microplate. 100 μl of the RBC suspension was added to each well. The plate was incubated for 20 minutes at room temperature in the dark. Unabsorbed antioxidants were removed by washing the RBC three times in PBS by centrifugation for 2.5 minutes at 2400 rpm. The RBC pellets were lysed by incubation in 0.08 ml distilled water for 5 minutes at room temperature.
The fluorescent probe was prepared by reconstituting 50 μg CM-H2DCFDA in 0.2 ml anhydrous dimethyl sulfoxide, which was then added to 7.5 ml PS. After lysis of RBC was complete 70 μl of the lysed RBC were transferred to a black microplate and 50 μl of CM-H2DCFDA was added to each well (16.25 μM CM-H2DCFDA). The microplate was incubated for 20 minutes at room temperature or 37° C. in the dark. Then 50 μl H2O2 (0.0004% final concentration) or 50 μl AAPH (1 mg/ml final concentration) was added to each well. Wells exposed to H2O2 were incubated for 5 minutes at room temperature in the dark. Wells exposed to AAPH were incubated for one hour at room temperature or 37° C. in the dark. Fluorescence intensity was measured in a Tecan Spectrafluor fluorescence plate reader with excitation at 485 nm and emission at 535 nm.
Negative controls were RBC which were not treated with a test sample or standard and were not exposed to an oxidative challenge. Positive controls were RBC which were not treated with a test sample or standard, but were exposed to an oxidative challenge. The percent inhibition of oxidative damage was calculated as [(fluorescence intensity of RBC treated with free radical generator−fluorescence intensity of RBC treated with test sample and free radical generator)/(fluorescence intensity of RBC treated with free radical generator−fluorescence intensity of untreated RBC)]×100.
The CAP-e value of a given test product is based on the comparison of the dose-response of inhibition of oxidative damage between the standard gallic acid (GA) and the test sample. For each test sample or compound, the IC50 for inhibition of oxidative damage is calculated. […] The CAP-e units of GA was set as 1,000 Gallic Acid Equivalents (GAE). […] The CAP-e value was expressed as CAP-e units/g of sample.

SMILES	protection of RBC from damage from both free radical generators (H2O2 and AAPH, at higher concentrations)	inhibition of oxidative damage: hydroxyl free radical generator H2O2 compared with peroxyl free radical generator AAPH	IC50 (Homo sapiens, Erythrocyte, determined from more than 60 independent experiments, read-out: IC50 for inhibition of oxidative damage) [µg/mL]	amount needed for the same level of protection, RBC from older person versus younger person (RBC from a person over 85 years versus under 50 years of age, H2O2, FIG. 11)
Cc1c(C)c2c(c(C)c1O)CCC(C)(C(=O)O)O2 (centres unmarked) [TROLOX®, 6-hydroxy-2,5,7,8-tetramethylchroman-2-carboxylic acid]	protected RBC from damage	more effective against hydroxyl free radicals at lower concentrations		
O=C(O)c1cc(O)c(O)c(O)c1 [GA, gallic acid]		equally effective	32 (≈ 188 µM)	More GA was required
